# Assay results as given in US20230365546A1, “5-SUBSTITUTED INDOLE 3-AMIDE DERIVATIVES, PREPARATION METHOD AND USE THEREOF” (ORIGIANT PHARMACEUTICAL CO., LTD, priority 2020, published 2023).
# Assays:
# [1] = test system: RIPK1 autophosphorylation, phosphorylation of RIPK3 and MLKL; test: Regulation of RIPK1 signaling pathway (Western blot); format: cell-based; conditions: TNF α/Smac mimetic/Z-VAD-FMK induced, FIG. 4
# Text: TNF α was purchased from PeproTech Inc., Smac mimetic and Z-VAD-FMK was purchased from Selleck Inc., RIPA lysis buffer was purchased from Beyotime Institute of Biotechnology, cocktail was purchased from MedChemExpress (MCE) Limited, PMSF protease inhibitors, sodium dodecylsulfonate SDS, and glycine were purchased from Sigma Inc., acrylamide, tris(hydroxymethyl)aminomethane Tris, ammonium persulfate APS and N,N,N′,N′-tetramethyl ethylenediamine TEMED were purchased from Wuhan Servicebio Technology Co., Ltd.
# Extraction of total cellular protein: after the cells were treated by adding the corresponding concentration of Compounds 94 and 46 or blank vehicle to the cell supernatant and induced with TNF α/Smac mimetic/Z-VAD-FMK combination for a certain period of time, the supernatant was discarded, followed by washing three times with pre-cooled PBS or normal saline, then an appropriate volume of RIPA lysis buffer (containing 1% cocktail and 1% PMSF protease inhibitor) was added, the mixture was immediately placed on ice horizontally for lysis of 15 min, then the cell lysis buffer was scraped with a scraper and transferred to a 1.5 ml EP tube, and the cells were disrupted with a sonicator. The tubes were then centrifuged in a low temperature high speed centrifuge (12000 rpm, 15 min) to remove cell debris. […]
# TNF α-induced SIRS = test: TNF α-induced mouse SIRS model; format: in vivo
# Method: TNF α formulated in sterile normal saline was administered at a dose of 500 μg/kg by tail vein injection for modeling. The body temperature of the mice was measured by an infrared electric thermometer. The orally-administrated vehicle was 25% castor oil in ethanol and 75% normal saline. Compounds 94 and 46 and RIPK1 positive compound GSK2982772 were administered orally before modeling with a dose of 40 mg/kg. Body temperature and the survival of mice were recorded every hour and recorded for 24 h and 48 h after 11 h.
# This experiment established a TNF α-induced SIRS mouse model to evaluate the in vivo activity of compounds of the present invention. TNF α formulated in sterile normal saline was administered to mice at a dose of 500 μg/kg by tail vein injection for modeling. Since the measurement of rectal temperature would cause mechanical injury to mice and may interfere with the experimental results, an infrared electric thermometer was used to measure the body temperature of mice and the survival condition was observed. Compounds 94 and 46 were administered at a dose of 40 mg/kg once prior to modeling. The Vehicle group was given the corresponding vehicle control.
# hERG potassium channel = hERG potassium channel (Homo sapiens (Human), UniProt Q12809); test: cell-based
# Method: Stable HEK-hERG cells were washed with DPBS, digested with Trypsin or Tryple solution, resuspended in culture medium, and stored in centrifuge tubes for use.
# hERG currents were recorded with a whole-cell patch clamp technique. The cell suspension was placed in a small petri dish and placed on an objective table of an inverted microscope. After attachment, the cells were perfused with extracellular fluid at a recommended flow rate of 1-2 mL/min. The glass microelectrode was pulled in two steps by a microelectrode puller, and the resistance in electrode fill solution was 2-5 MΩ.
# After establishing the whole-cell recording mode, the clamping potential was kept at −80 mV. […] This set of pulses was repeated every 15 seconds throughout the experiment.
# After the current was stable, continuous extracellular perfusion administration was conducted from low concentration to high concentration. The perfusion was continued from a low concentration until the pharmaceutical effect was stable, and then the perfusion of the next concentration was conducted.
# if it was unstable, this concentration data would not be taken.
# IC50 values were obtained by fitting the Hill equation (if applicable): […]
# DSS-induced colitis = test: DSS-induced mouse IBD model
# Method: Female C57BL/6 mice weighing 17-20 g were used. […] Fresh DSS solution was changed on Days 2, 4, and 6, respectively. […] The Control group was given normal drinking water daily and corresponding vehicles orally starting on day 7. Body weights and survival rates of mice were recorded daily. Survival curves were fitted using Graphpad Prism 5.0 software. Mice (2/group) were sacrificed on day 12 and observed for changes in colon length.
# hERG potassium channel, sequence (Q12809 whole entry): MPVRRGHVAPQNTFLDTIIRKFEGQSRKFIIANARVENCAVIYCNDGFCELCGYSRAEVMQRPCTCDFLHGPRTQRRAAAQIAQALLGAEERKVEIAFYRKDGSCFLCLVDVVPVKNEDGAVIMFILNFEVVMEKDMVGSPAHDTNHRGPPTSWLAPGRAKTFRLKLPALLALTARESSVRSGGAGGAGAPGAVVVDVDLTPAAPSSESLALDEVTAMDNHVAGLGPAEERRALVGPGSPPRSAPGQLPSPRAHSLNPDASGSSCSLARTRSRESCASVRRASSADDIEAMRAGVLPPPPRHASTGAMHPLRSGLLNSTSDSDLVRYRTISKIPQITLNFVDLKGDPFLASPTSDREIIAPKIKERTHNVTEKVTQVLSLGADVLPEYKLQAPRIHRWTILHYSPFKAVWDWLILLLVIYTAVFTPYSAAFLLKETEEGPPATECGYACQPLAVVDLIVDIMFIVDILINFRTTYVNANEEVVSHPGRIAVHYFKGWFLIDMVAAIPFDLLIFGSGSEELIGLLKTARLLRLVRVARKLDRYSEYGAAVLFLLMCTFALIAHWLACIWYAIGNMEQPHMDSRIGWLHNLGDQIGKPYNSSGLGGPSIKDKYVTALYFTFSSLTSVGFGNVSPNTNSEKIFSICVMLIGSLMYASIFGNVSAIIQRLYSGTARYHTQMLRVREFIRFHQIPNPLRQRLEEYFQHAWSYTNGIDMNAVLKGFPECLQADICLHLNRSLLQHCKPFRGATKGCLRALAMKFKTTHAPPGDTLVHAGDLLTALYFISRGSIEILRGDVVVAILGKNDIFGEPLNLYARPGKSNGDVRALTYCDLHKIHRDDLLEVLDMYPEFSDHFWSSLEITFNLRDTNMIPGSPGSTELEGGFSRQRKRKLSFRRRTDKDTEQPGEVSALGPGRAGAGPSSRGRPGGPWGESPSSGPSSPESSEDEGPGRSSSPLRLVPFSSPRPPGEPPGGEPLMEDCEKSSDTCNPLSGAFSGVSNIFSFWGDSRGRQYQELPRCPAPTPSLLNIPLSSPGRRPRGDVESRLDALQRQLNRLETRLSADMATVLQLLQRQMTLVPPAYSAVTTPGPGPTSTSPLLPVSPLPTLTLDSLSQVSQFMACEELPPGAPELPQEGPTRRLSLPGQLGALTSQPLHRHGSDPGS
smiles,measurement,setting,value
"C[C@H](NC(=O)c1cn(C)c2ccc(-c3ccn4nc(NC(=O)C5CC5)nc4c3)cc12)c1cccc(F)c1 [Compound 94, (S)-5-(2-(cyclopropanecarboxamido)-[1,2,4]triazolo[1,5-a]pyridin-7-yl)-N-(1-(3-fluorophenyl)ethyl)-1-methyl-1H-indole-3-carboxamide]","Effect on necrotic signaling pathway (RIPK1 autophosphorylation, RIPK3 and MLKL phosphorylation)",[1],affected the phosphorylation of RIPK3 and MLKL downstream of RIPK1 by inhibiting its autophosphorylation
same,Overall mortality,"TNF α-induced SIRS; 40 mg/kg oral once before TNF α 500 μg/kg i.v., compared with Vehicle group",significantly reduced
same,Body temperature of mice,"TNF α-induced SIRS; 40 mg/kg oral once before TNF α 500 μg/kg i.v., within 11 h",relatively normal
same,Protective effect compared with positive drug,"TNF α-induced SIRS; 40 mg/kg oral, vs GSK2982772 40 mg/kg",better protective effect than positive drug GSK2982772
same,IC50,hERG potassium channel,> 30 µM
same,Average inhibitory ratio on hERG potassium channel current,"hERG potassium channel; human, 30 μM",3.40%
same,Death of mice,DSS-induced colitis; 40 mg/kg oral from day 7 after 2.5% DSS,no death by 14 days
same,Body weight of mice,"DSS-induced colitis; 40 mg/kg oral from day 7 after 2.5% DSS, FIG. 6",gradual increase in body weight
same,Colon length of mice,"DSS-induced colitis; 40 mg/kg oral, sacrificed on day 12, FIG. 7",basically equivalent to that of mice in Control group
same,Therapeutic effect compared with positive drug,"DSS-induced colitis; 40 mg/kg oral, vs GSK3145095 40 mg/kg",better therapeutic effect than positive drug GSK3145095
